In patent publication US7196110B2, “N-substituted tricyclic 3-aminopyrazoles as inhibitors for the treatment of cell proliferative disorders” (Janssen Phamaceutica N.V., priority 2002, dated 2007):

Assays:
c-Abl kinase = c-Abl kinase (Abelson murine leukemia virus, UniProt P00521); test: Inhibition of c-Abl kinase activity (cell-free, Abl peptide substrate, 33P Flashplate); assay type: biochemical; conditions: IC50 for the c-Abl kinase activity
[1] = target: T1, PDGF-receptor beta enzyme comprising the tyrosine kinase domain (Homo sapiens, UniProt P09619); test: Inhibition of PDGF-receptor kinase activity (cell-free, PLC1 peptide, 33P Flashplate); assay type: biochemical; conditions: PDGF-R kinase activity
T1 construct: from amino acid 545 to 1106 of GenBank Access NO: AAA36427
T1 sequence (P09619 545-1106): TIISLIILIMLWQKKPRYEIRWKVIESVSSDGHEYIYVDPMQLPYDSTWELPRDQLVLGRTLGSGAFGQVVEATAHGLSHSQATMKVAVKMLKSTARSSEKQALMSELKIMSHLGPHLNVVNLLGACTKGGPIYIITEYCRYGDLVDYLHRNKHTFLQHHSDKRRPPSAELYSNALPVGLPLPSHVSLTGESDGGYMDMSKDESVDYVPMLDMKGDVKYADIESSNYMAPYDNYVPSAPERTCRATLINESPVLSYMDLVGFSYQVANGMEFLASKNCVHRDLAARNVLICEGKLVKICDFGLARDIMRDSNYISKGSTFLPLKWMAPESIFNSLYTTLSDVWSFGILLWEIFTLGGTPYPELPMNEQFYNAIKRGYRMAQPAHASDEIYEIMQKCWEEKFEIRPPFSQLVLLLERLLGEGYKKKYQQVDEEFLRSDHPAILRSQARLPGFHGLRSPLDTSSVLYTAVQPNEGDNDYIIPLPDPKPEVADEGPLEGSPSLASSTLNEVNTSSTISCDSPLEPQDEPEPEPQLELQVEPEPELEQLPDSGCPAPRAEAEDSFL
Procedure, shortened: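 Recombinant kinase domain (aa 545–1106) phosphorylated a biotinylated PLC1 peptide with 5 μM ATP plus 33P-γ-ATP, in Tris pH 8, MgCl2, Na3VO4 and 1 mM DTT, for 60 min at 30 °C. Retained 33P was counted after washing. IC50 is the concentration halving activity versus no-inhibitor reactions.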

[2] = tested on: PDGF-BB-stimulated angiogenesis; test: Anti-angiogenesis matrigel mouse model (MM assay) supplemented with PDGF-BB, plug hemoglobin content; assay type: in vivo, mice (C57BL/6J); conditions: mice
From the text: Angiogenesis inhibitory activity of a compound of this invention can be measured in vivo using the matrigel mouse model (MM Assay) of angiogenesis (Passaniti et al., Laboratory Investigation, 67: 519–528, 1992). The matrigel mouse assay is a well-established method to quantify angiogenesis (see e g. Capogrossi et al., Methods in Molecular Medicine, Vascular Disease: Molecular Biology and Gene Therapy Protocols, Edited by: A. H. Baker, Humana Press Inc., Totowa, N.J., 1999). The model has been characterized extensively for its relevance as a mimic of the process of angiogenesis and has been used extensively to evaluate in vivo both potential angiogenic and anti-angiogenic activity of numerous compounds/agents. […] All procedures involving animals were conducted in an animal facility fully accredited by the American Association for Assessment and Accreditation of Laboratory Animal Care (AAALAC) and in accordance with The Guide for the Care and Use of Laboratory Animals (NIH). […]
Normal male mice (C57BL/6J) were injected subcutaneously (ventrally below rib cage at abdominal midline) with 1.0 mL of chilled matrigel supplemented with a single purified pro-angiogenic growth factor (100–500 ng/mL of either rhPDGF-BB (supra), recombinant human basic fibroblast growth factor, rhFGF-basic (R&D System Cat. No 233-FB) or recombinant human vascular endothelial growth factor, rhVEGF (PanVera Cat. No R2951) and heparin (35 U/mL). Compounds are formulated as 0.1% suspensions (1 mg/mL final concentration) in 0.5% methylcellulose. Vehicle or test compounds (8–10 mice per treatment group) were administered orally by gavage beginning two hours after matrigel injections. […] Supernatants were removed and the hemoglobin concentration in the plug extract was measured spectrophotometrically using the Drabkin's assay method (Drabkin's reagent kit 525-A; SIGMA) and read on a Beckman DU 7400 Spectrophotometer. […] Group differences were analyzed statistically using the Mann-Whitney Test, with a p-value of 0.05 or less considered statistically significant. […]

c-Abl kinase, sequence (P00521 115-385): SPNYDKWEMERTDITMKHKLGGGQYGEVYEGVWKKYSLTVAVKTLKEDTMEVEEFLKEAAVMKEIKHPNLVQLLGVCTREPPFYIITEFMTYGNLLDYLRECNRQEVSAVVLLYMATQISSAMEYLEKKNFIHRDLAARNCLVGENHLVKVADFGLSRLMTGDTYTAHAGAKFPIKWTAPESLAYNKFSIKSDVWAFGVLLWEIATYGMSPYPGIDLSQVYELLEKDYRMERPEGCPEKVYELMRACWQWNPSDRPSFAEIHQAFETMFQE

COc1cc2c(cc1OC)-c1n[nH]c(Nc3cccc(C(F)(F)F)c3)c1C2 [Compound 26, (6,7-Dimethoxy-2,4-dihydro-indeno[1,2-c]pyrazol-3-yl)-(3-trifluoromethyl-phenyl)-amine]
IC50 (c-Abl kinase): 134 nM | inhibition at 10 µM ([1]; compound at 10 uM, read-out: Percent Inhibition @ 10 uM): 92% | IC50 ([1]; read-out: IC50): 37 nM | % Inhibition @ 30 mg/kg po (angiogenesis, MM assay supplemented with PDGF-BB) [2]: 42%
